Assay results published in US20200332222A1, “MUSK COMPOSITIONS AND METHODS OF USE THEREOF” (TAKASAGO INTERNATIONAL CORPORATION (USA), priority 2015, published 2020).

What was measured:
[1] = Chassis-air partition coefficient of accord components; assay type: physicochemical
[2] = as above; assay type: physicochemical; settings: BC-162 shampoo chassis
Description: The chassis-air partition coefficient can be measured for materials in various chassis.
Ki,chassis-air is the chassis-air partition coefficient for component i in the fragrance formula
Ci, chassis is the concentration of component i in the product formula chassis in molarity, M
Ci, air is the concentration of component i in the headspace air in equilibrium with the formula chassis in molarity, M
For the “Example Accord” in the BC-162 shampoo chassis components, the log chassis-air partition coefficients are as listed in Table 11.

salivary cortisol = experiment: Salivary cortisol before vs after timed ten minute mathematical/word stress test, fragrance inhaled; assay type: in vivo, human; settings: for Cortisol Data (change before vs after stress test): Table 6, about 10-15 panelists, DPG control −10.9%
Description: Salivary cortisol is widely used as a biomarker for stress. The purpose of this study was to investigate the influence of individual fragrance compounds, particularly musk compounds, on a subject's cortisol levels before and after exposure to a stressor. The subject sniffed each musk compound, then was exposed to a stressor. The goal was to identify one or more specific musk compounds which caused the least amount of change in cortisol levels or decreased a subject's cortisol levels compared to before administration, thereby reducing or inhibiting a response to stress stimuli. […]
Stress was induced in a number of panelists (about 10-15) for each tested compound using a timed ten minute mathematical/word test in a small group competition setting. The test compound was introduced at intervals during the stress test.
Saliva was collected before and immediately after the stress test. Saliva samples were assayed for salivary cortisol levels and salivary alpha-amylase activity using a commercially available kinetic reaction assay kit (Salimetrics®, State College, Pa.). […]
(§1) Saliva was collected before (Pre) and immediately after (Post) the stress test. Saliva samples were assayed for salivary alpha-amylase using a commercially available kinetic reaction assay kit and for salivary cortisol using a highly sensitive enzyme immunoassay kit (Salimetrics®, State College, Pa.).

salivary alpha-amylase = experiment: Salivary alpha-amylase before vs after timed ten minute mathematical/word stress test, fragrance inhaled; assay type: in vivo, human; settings: for Salivary Amylase Data (change before vs after stress test): Table 6, about 10-15 panelists, DPG control +60.7%; for Percent change in salivary alpha-amylase: solvent only control 66.8%
Procedure: Fourteen female panelists age 30-45 participated in this study. Stress was induced using a timed ten minute mathematical/word test in a small group competition setting. Fragrance was introduced at intervals during the stress test. Saliva was collected before (Pre) and immediately after (Post) the stress test. Saliva samples were assayed for salivary alpha-amylase using a commercially available kinetic reaction assay kit and for salivary cortisol using a highly sensitive enzyme immunoassay kit (Salimetrics®, State College, Pa.). […]
as §1

brain waves = experiment: Contingent Negative Variant (CNV) analysis of brain waves recorded by EEG; assay type: in vivo, human; settings: Example 9; Musk T 10% by weight in DPG
Procedure: Contingent Negative Variant (CNV) analysis was conducted on brain waves recorded from subjects using EEG (electroencephalography) in the presence of the musk fragrance compound. CNV analysis is summarized in Okazaki et al., Proceedings of the 13th International Congress of Flavours, Fragrances and Essential Oils, 15-19 Oct. 1995.

[3] = Table 4, macrocyclic musks, 12-14 female panelists age 30-45, before vs immediately after stress test
[4] = Table 5, non-macrocyclic musks, methods as Example 6

Structure (SMILES) | logK, APDO Soft Solid (log chassis-air partition coefficient) [1] | logK, BC162 (log chassis-air partition coefficient) [2] | Cortisol Data (change before vs after stress test) (salivary cortisol) | Salivary Amylase Data (change before vs after stress test) (salivary alpha-amylase) | Percent change in salivary alpha-amylase (salivary alpha-amylase; [3]) [%] | other results
CC(=O)CCc1ccc(O)cc1 [PARA HYDROXY PHENYL BUTANONE] | 6.135 | 7.809 |  |  |  | 
CC(=O)OC(C)C1CCCC(C)(C)C1 (stereo not shown) [Rosamusk, 1-(3,3-dimethylcyclohexyl)ethyl acetate] |  |  | +6.68% | −15.2% |  | Pre vs. Post salivary cortisol level, increase in response to stress test (salivary cortisol; Example 10, FIG. 8, Rosamusk 10% by weight in DPG, DPG alone 25%): 7%; Pre vs. Post salivary alpha-amylase level, decrease in response to stress test (salivary alpha-amylase; Example 10, FIG. 7, Rosamusk 10% by weight in DPG, DPG alone increased 33%): 15%
O=C1CCCCCCCCCCCCCCO1 [EXALTOLIDE, 16-oxacyclohexadecan-1-one] | 6.729 | 5.356 |  |  |  | 
CC1CCCCCCCCCCCCC(=O)C1 [L-Muscone] |  |  | +25.6% | +14.5% |  | 
O=C1CCCCCCCCCCCC(=O)OCCO1 [Musk T ®, ethylene brassylate] | 7.306 | 6.345 |  |  | 47.1 | Pre vs. Post salivary cortisol level, decrease in response to stress test (salivary cortisol; Example 8, FIG. 4, Musk T 2.5% by weight in fragrance (floral fragrance/Musk T 75/25 admixture, 10% in DPG), DPG alone increased 24%): 8%; Pre vs. Post salivary cortisol level, increase in response to stress test (salivary cortisol; Example 9, FIG. 6, Musk T 10% by weight in DPG, DPG alone 41%): 10%; increase in the level of relaxation, CNV analysis of brain waves (brain waves): 32.5%; Pre vs. Post salivary alpha-amylase level, increase in response to stress test (salivary alpha-amylase; Example 8, FIG. 3, Musk T 2.5% by weight in fragrance (floral fragrance/Musk T 75/25 admixture, 10% in DPG), DPG alone 120%): 38%; Pre vs. Post salivary alpha-amylase level, increase in response to stress test (salivary alpha-amylase; Example 9, FIG. 5, Musk T 10% by weight in DPG, DPG alone 161%): 47%
O=C1CCCC=CCCCCCCCCCC1 [Ambretone ®, 5-Cyclohexadecen-1-one] |  |  |  |  | 36.9 | 
CC1=CCC(C/C=C(\C)CO)C1(C)C (stereo not shown) [Hindinol, (E)-2-methyl-4-(2,2,3-trimethyl-1-cyclopent-3-enyl)but-2-en-1-ol] |  |  | −25.0% | +82.3% |  | Percent change in salivary alpha-amylase (salivary alpha-amylase; [4]): 82.3%
O=C1CCCCCCCCC/C=C/CCCO1 [Habanolide, (12E)-1-oxacyclohexadec-12-en-2-one] | 6.693 | 5.505 | −20.6% | +4.67% | 4.7 | 
CCOC(=O)[C@@H]1[C@@H](C)CCCC1(C)C [ethyl (1R,6S)-2,2,6-trimethylcyclohexane-1-carboxylate] |  |  |  |  |  | Percent change in salivary alpha-amylase (salivary alpha-amylase; [4]): 70.7%
CC(=O)C(C)CC[C@H]1CCC(C)C1(C)C (stereo partly drawn) [3-methyl-5-((1R)-2,2,3-trimethylcyclopentyl)pentan-2-one] |  |  | −16.5% | −6.1% |  | 
O=C1CCCCC=CCCCCCCCCCO1 [Ambrettolide, 17-oxacycloheptadec-6-en-1-one] |  |  | −11.25% | +13.16% | 13.1 | 
CC(=O)c1cc2c(cc1C)C(C)(C)C(C)C2(C)C (stereo not shown) [Phantolide, 1-(1,1,2,3,3,6-hexamethyl-2H-inden-5-yl)ethanone] |  |  | −12.3% | −19.2% |  | 
O=C1CCCCCCCCCOCCCCCO1 [MUSK RI, 11-Oxahexadecan-16-olide] | 6.970 | 5.780 |  |  |  | 
